Legend:
[1] = Determination of the log P values by HPLC (formic acid method); type: physicochemical; settings: reversed-phase column (C 18), acidic range (pH 3.4), 55° C.; for chromatographic logP: reversed-phase HPLC column (C 18)
Procedure: 1) Description of Method for Determination of the Log P Values (Formic Acid Method)
Eluents for determination in the acidic range (pH 3.4):
Eluent A: acetonitrile+1 ml of formic acid/liter. Eluent B: water+0.9 ml of formic acid/liter.
The lambda max values were determined in the maxima of the chromatographic signals using the UV spectra from 200 nm to 400 nm.

Phaedon cochleariae = Phaedon cochleariae spray test (PHAECO); type: in vivo; settings: foliar, 168 h, application rate 500 g/ha, larvae on Chinese cabbage leaf discs, after 7 days, read-out: efficacy
Procedure: Phaedon cochleariae Spray Test (PHAECO)
(§1) Solvents: 78.0 parts by weight of acetone • • 1.5 parts by weight of dimethylformamide
(§2) Emulsifier: 0.5 part by weight of alkylaryl polyglycol ether
(§3) To produce a suitable preparation of active compound, 1 part by weight of active compound is mixed with the stated amounts of solvents and emulsifier, and the concentrate is diluted with emulsifier-containing water to the desired concentration.
After 7 days, the efficacy in % is determined. 100% means that all of the beetle larvae have been killed; 0% means that none of the beetle larvae have been killed.

Spodoptera frugiperda = Spodoptera frugiperda spray test (SPODFR); type: in vivo; settings: caterpillars on maize leaf discs, after 7 days
Procedure: Spodoptera frugiperda Spray Test (SPODFR)
as §1, §2, §3
Leaf discs of maize (Zea mays) are sprayed with an active compound formulation of the desired concentration and, after drying, populated with caterpillars of the armyworm (Spodoptera frugiperda).
After 7 days, the efficacy in % is determined. 100% means that all of the caterpillars have been killed; 0% means that none of the caterpillars have been killed.

Myzus persicae = Myzus persicae spray test (MYZUPE); type: in vivo; settings: Chinese cabbage leaf discs, after 6 days
Procedure: Myzus persicae Spray Test (MYZUPE)
Solvents: 78 parts by weight of acetone • • 1.5 parts by weight of dimethylformamide
as §2, §3
Discs of Chinese cabbage leaves (Brassica pekinensis) infested by all stages of the green peach aphid (Myzus persicae) are sprayed with an active compound preparation of the desired concentration.
After 6 days, the efficacy in % is determined 100% here means that all of the aphids have been killed; 0% means that no aphids have been killed.

Lucilia cuprina larvae = test: Lucilia cuprina test (LUCICU); type: in vivo; settings: application rate 100 ppm; larvae on treated horse meat; after 2 days
Procedure: Lucilia cuprina Test (LUCICU)
(§4) Solvent: dimethyl sulphoxide
(§5) To produce a suitable preparation of active compound, 10 mg of active compound are mixed with 0.5 ml of dimethyl sulphoxide, and the concentrate is diluted with water to the desired concentration.
Vessels containing horse meat treated with the active compound preparation of the desired concentration are populated with about 20 Lucilia cuprina larvae.
After 2 days, the kill in % is determined 100% means that all of the larvae have been killed; 0% means that none of the larvae have been killed.

Cooperia curticei = Cooperia curticei test (COOPCU); type: in vivo
Procedure: Cooperia curticei Test (COOPCU)
as §4
(§6) To produce a suitable preparation of active compound, 10 mg of active compound are mixed with 0.5 ml of dimethyl sulphoxide, and the concentrate is diluted with Ringer solution to the desired concentration.
Vessels containing the active compound preparation of the desired concentration are populated with about 40 nematode larvae (Cooperia curticei).
(§7) After 5 days, the kill in % is determined 100% means that all of the larvae have been killed; 0% means that none of the larvae have been killed.

Boophilus microplus = Boophilus microplus test (DIP); type: in vivo; settings: application rate 100 ppm, after 7 days by laying of fertile eggs, 100% = no fertile eggs
Procedure: Boophilus microplus Test (DIP)
Test animals: adult engorged Boophilus microplus females of the SP-resistant Parkhurst strain
as §4
10 mg of active compound are dissolved in 0.5 ml of dimethyl sulphoxide. For the purpose of preparing a suitable formulation, the active compound solution is diluted with water to the concentration desired in each case.
This active compound preparation is pipetted into tubes. 8-10 ticks are transferred into a further tube with holes. The tube is immersed into the active compound formulation, and all ticks are completely wetted. After the liquid has run out, the ticks are transferred onto filter discs in plastic dishes and stored in a climate-controlled room.
The activity is assessed after 7 days by laying of fertile eggs. Eggs whose fertility is not visible from the outside are stored in a climate-controlled cabinet until the larvae hatch. An efficacy of 100% means that none of the ticks has laid any fertile eggs.

Ctenocephalides felis = Ctenocephalides felis oral test (CTECFE); type: in vivo; settings: application rate 100 ppm in citrated cattle blood; adult fleas; after 2 days
Procedure: Ctenocephalides felis—Oral Test (CTECFE)
Solvent: 1 part by weight of dimethyl sulphoxide
To produce a suitable preparation of active compound, 10 mg of active compound are mixed with 0.5 ml of dimethyl sulphoxide. A portion of the concentrate is diluted with citrated cattle blood, and the desired concentration is prepared.
About 20 unfed adult fleas (Ctenocephalides felis) are placed into a chamber which is closed at the top and bottom with gauze. A metal cylinder whose bottom end is closed with a parafilm is placed onto the chamber. The cylinder contains the blood/active compound preparation, which can be imbibed by the fleas through the Parafilm membrane.
After 2 days, the kill in % is determined 100% means that all fleas have been killed; 0% means that none of the fleas have been killed.

Musca domestica = Musca domestica test (MUSCDO); type: in vivo; settings: adult flies, after 2 days
Procedure: Musca domestica Test (MUSCDO)
as §4, §5
Vessels containing a sponge treated with the active compound formulation of the desired concentration are populated with adult Musca domestica.
After 2 days, the kill in % is determined. 100% means that all of the flies have been killed; 0% means that none of the flies have been killed.

Meloidogyne incognita = Meloidogyne incognita test (MELGIN); type: in vivo; settings: Meloidogyne incognita, 336 h; application rate 20 ppm; lettuce in sand; after 14 days; read-out: nematicidal effect (formation of galls)
Procedure: Meloidogyne incognita Test (MELGIN)
Solvent: 125.0 parts by weight of acetone
To prepare a suitable active compound preparation, 1 part by weight of active compound is mixed with the stated amount of solvent and the concentrate is diluted with water to the desired concentration.
Vessels are filled with sand, active compound solution, an egg/larvae suspension of the root-knot nematode (Meloidogyne incognita) and lettuce seeds. The lettuce seeds germinate and the plants develop. On the roots, galls are formed.
After 14 days, the nematicidal effect in % is determined by the formation of galls. 100% means that no galls have been found; 0% means that the number of galls on the treated plants corresponds to the untreated control.

Haemonchus contortus = Haemonchus contortus test (HAEMCO); type: in vivo; settings: application rate 4 ppm; larvae; after 5 days
Procedure: Haemonchus contortus Test (HAEMCO)
as §4, §6
Vessels containing the active compound preparation of the desired concentration are populated with about 40 larvae of the red stomach worm (Haemonchus contortus).
as §7

[2] = Determination of the log P values by HPLC (formic acid method); type: physicochemical; settings: printed as (neutral)

O=C(Nc1nn(-c2ccccc2Cl)cc1I)c1ccccc1C(F)(F)F [Compound I-1-17, N-[4-Iodo-1-(2-chlorophenyl)-1H-pyrazol-3-yl]-2-(trifluoromethyl)benzamide]
chromatographic logP [1]: 3.16 | pest or weed control at 500 g/ha (Phaedon cochleariae): 100% | efficacy (Spodoptera frugiperda; application rate 500 g/ha): 83%

N#CCN(C(=O)c1ccccc1Cl)c1ccn(-c2ccccc2Cl)n1 [Compound I-1-25]
log P [1]: 3.04 | efficacy (Myzus persicae; application rate 500 g/ha): 80%

O=C(Nc1nn(-c2ccccc2Cl)cc1Br)c1ccccc1Cl [Compound I-1-29]
log P [1]: 2.99 | efficacy (Spodoptera frugiperda; application rate 500 g/ha): 83%

O=C(Nc1nn(-c2ccccc2Cl)cc1Cl)c1ccccc1I [Compound I-1-34]
log P [1]: 3.10 | efficacy (Spodoptera frugiperda; application rate 500 g/ha): 83%

Cc1cc(NC(=O)c2ccccc2I)nn1-c1ccccc1Cl [Compound I-1-35]
log P [1]: 2.53 | efficacy (Spodoptera frugiperda; application rate 500 g/ha): 100%

O=C(Nc1ccn(-c2cccc(F)c2F)n1)c1ccccc1Br [Compound I-1-63, 2-Bromo-N-[1-(2,3-difluorophenyl)-1H-pyrazol-3-yl]benzamide]
chromatographic logP [1]: 2.97 | efficacy (kill) (Lucilia cuprina larvae): 80% | pest or weed control at 20 ppm (Cooperia curticei; Cooperia curticei, 120 h, application rate 20 ppm, nematode larvae, after 5 days, read-out: efficacy (kill)): 90% | efficacy (Myzus persicae; application rate 500 g/ha): 90% | pest or weed control at 500 g/ha (Phaedon cochleariae): 100%

CS(=O)(=O)c1ccccc1C(=O)Nc1ccn(-c2c(F)cccc2F)n1 [Compound I-1-80]
log P [1]: 1.95 | efficacy (Myzus persicae; application rate 500 g/ha): 90%

O=C(Nc1ccn(-c2c(F)cccc2F)n1)c1ccccc1[N+](=O)[O-] [Compound I-1-86]
log P [1]: 2.20 | efficacy (Myzus persicae; application rate 20 g/ha): 90%

O=C(Nc1ccn(-c2c(F)cccc2F)n1)c1ncccc1C(F)(F)F [Compound I-1-91, N-[1-(2,6-Difluorophenyl)-1H-pyrazol-3-yl]-3-(trifluoromethyl)pyridine-2-carboxamide]
chromatographic logP [1]: 2.22 | efficacy (Boophilus microplus): 90% | efficacy (kill) (Ctenocephalides felis): 80% | efficacy (kill) (Musca domestica; application rate 20 ppm): 85% | pest or weed control at 100 ppm (Cooperia curticei; Cooperia curticei, 120 h, application rate 100 ppm, nematode larvae, after 5 days, read-out: efficacy (kill)): 90% | pest or weed control at 20 ppm (Meloidogyne incognita): 100% | pest or weed control at 500 g/ha (Phaedon cochleariae): 100%

O=C(Nc1ccn(-c2c(F)cccc2F)n1)c1nccnc1C(F)(F)F [Compound I-1-99]
log P [1]: 2.45 | efficacy (Boophilus microplus): 100% | efficacy (kill) (Ctenocephalides felis): 80% | efficacy (kill) (Musca domestica; application rate 20 ppm): 90%

O=C(Nc1ccn(-c2cc(Cl)ccc2Cl)n1)c1ccccc1Cl [Compound I-1-118]
log P [1]: 3.36 | efficacy (Spodoptera frugiperda; application rate 100 g/ha): 83%

O=C(Nc1ccn(-c2ncccc2F)n1)c1ccccc1C(F)(F)F [Compound I-1-128]
log P [1]: 2.24 | efficacy (kill) (Ctenocephalides felis): 85%

O=C(Nc1ccn(-c2ncccc2F)n1)c1ccccc1I [Compound I-1-131]
log P [1]: 2.22 | efficacy (kill) (Ctenocephalides felis): 90%

O=C(Nc1ccn(-c2ncccc2F)n1)c1cccnc1C(F)(F)F [Compound I-1-133]
log P [1]: 1.83 | efficacy (Myzus persicae; application rate 500 g/ha): 90%

O=C(Nc1ccn(-c2ncccc2Cl)n1)c1ccccc1Cl [Compound I-1-136]
log P [1]: 2.21 | efficacy (Spodoptera frugiperda; application rate 500 g/ha): 100%

O=C(Nc1ccn(-c2ncc(F)cc2F)n1)c1ccccc1I [Compound I-1-145]
log P [1]: 2.45 | efficacy (kill) (Lucilia cuprina larvae): 90% | efficacy (Myzus persicae; application rate 500 g/ha): 90%

O=C(Nc1ccn(-c2cc(F)ccc2F)n1)c1sccc1I [Compound I-1-221]
log P [1]: 3.57 | efficacy (kill) (Cooperia curticei; application rate 4 ppm, nematode larvae, after 5 days): 90% | efficacy (kill) (Haemonchus contortus): 90%

N#CCN(C(=O)c1ccccc1C(F)(F)F)c1ccn(-c2c(F)cccc2F)n1 [Compound I-1-259]
log P [1]: 2.90 | efficacy (Spodoptera frugiperda; application rate 500 g/ha): 100%

COc1ccccc1C(=O)Nc1ccn(-c2c(F)cccc2F)n1 [Compound I-1-280]
log P [1]: 2.75 | efficacy (Myzus persicae; application rate 500 g/ha): 90%

O=C(Nc1ccn(-c2ccccc2Br)n1)c1c(F)cccc1C(F)(F)F [Compound I-1-335]
log P (neutral) [2]: 3.02

O=C(Nc1ccn(-c2cncc(F)n2)n1)c1c(F)cccc1F [Compound I-1-403]
log P [1]: 2.32 | efficacy (Spodoptera frugiperda; application rate 500 g/ha): 100%

O=C(Nc1ccn(-c2ncccc2Cl)n1)c1cccnc1C(F)(F)F [Compound I-1-562]
log P [1]: 1.98 | efficacy (kill) (Musca domestica; application rate 100 ppm): 90%

O=C(Nc1cnn(-c2ccccc2Cl)n1)c1ccccc1C(F)(F)F [Compound I-2-1, N-[2-(2-Chlorophenyl)-2H-1,2,3-triazol-4-yl]-2-(trifluoromethyl)benzamide]
chromatographic logP [1]: 3.02 | efficacy (Boophilus microplus): 100% | efficacy (kill) (Ctenocephalides felis): 90% | pest or weed control at 4 ppm (Cooperia curticei; Cooperia curticei, 120 h, read-out: efficacy (kill)): 100% | efficacy (kill) (Haemonchus contortus): 80% | pest or weed control at 500 g/ha (Phaedon cochleariae): 100%

O=C(Nc1cnn(-c2ncccc2Cl)n1)c1ccccc1C(F)(F)F [Compound I-2-10]
log P [1]: 2.38 | efficacy (kill) (Ctenocephalides felis): 90%

O=C(Nc1cnn(-c2c(F)cccc2F)n1)c1c(F)cccc1C(F)(F)F [Compound I-2-39]
log P [1]: 2.88 | efficacy (Myzus persicae; application rate 500 g/ha): 90%

O=C(Nc1cnn(-c2c(F)cccc2F)n1)c1ccccc1I [Compound I-2-41]
log P [1]: 2.81 | efficacy (Spodoptera frugiperda; application rate 500 g/ha): 100%

O=C(Nc1cnn(-c2ncccc2F)n1)c1c(F)cccc1C(F)(F)F [Compound I-2-49]
log P [1]: 2.26 | efficacy (kill) (Haemonchus contortus): 90%

O=C(Nc1cnn(-c2ncccc2F)n1)c1ccccc1I [Compound I-2-51]
log P [1]: 2.14 | efficacy (kill) (Haemonchus contortus): 80%

O=C(Nc1cnn(-c2ncccc2Cl)n1)c1ccsc1I [Compound I-2-58]
log P [1]: 2.44 | efficacy (Myzus persicae; application rate 500 g/ha): 90%

Source: patent US9802899B2, “Heterocyclic compounds as pesticides” (BAYER CROPSCIENCE AG, priority 2012, dated 2017)
